Measured values: patent publication US9383374B2, “Methods to determine susceptibility to treatment with leukotriene modifiers” (NATIONAL JEWISH HEALTH, priority 2008, dated 2016)

System: children with physician-diagnosed asthma
Test: Randomized placebo-controlled study of daily montelukast on LTE4-related albuterol usage in schoolchildren with asthma
Type: in vivo, human
Conditions: for Change in Albuterol Usage Per IQR Increase in LTE4, Relative difference (treatment vs baseline interval) / Change in Albuterol Usage Per IQR Increase in LTE4, Treatment Interval: montelukast group
From the text: Twenty-eight children, aged 6 to 15, who had physician-diagnosed asthma were followed over a 5-month period (Nov. 15, 2005 to Apr. 15, 2006). Children were excluded from the study if they were already receiving montelukast. Many of the children are classified as urban poor. The children attended the same school.
After an initial two and a half month period (baseline interval), children were randomized to receive daily montelukast (montelukast group) or placebo (placebo group) for the final two and a half months of the study (treatment interval). Study medication and placebo were administered in a single-blinded fashion by school nurses or study personnel on school days and by parents (who were blinded) on non-school-days. Children were otherwise followed by their regular physicians who were free to adjust medications as needed (these medication changes were recorded and controlled for in the statistical analysis).
Each child was given a Doser (Meditrak, Hudson, M S) for use at school throughout the 5-month period. The Doser is an electronic counter that records the total number of (albuterol) activations in each 24-hour period. At study initiation, parents completed a questionnaire describing baseline demographic and asthma severity characteristics. School nurses recorded all other medication changes during the study.
Sixteen urine samples were collected from each child on 8 consecutive schooldays during the baseline interval and 8 consecutive schooldays during the treatment interval. Urine was collected at approximately the same time each day (10:00 AM to 12:00 PM). Collection was staggered in groups of 10 children so that urine monitoring occurred daily throughout the 5 months of the study.
Baseline model: A Poisson regression model employing generalized estimating equations (GEE) (Dobson A J. An introduction to generalized linear models, 2nd edition, Chapman & Hall/CRC 2001) was used to determine the strength of association between albuterol medication use (modeled as the outcome) and LTE4 levels, at various lag times (in days) between the variables. An indicator for Friday (=1 if response was on Friday, =0 otherwise) was included because children had regular exercise activities from Monday through Thursday, but not on Friday. […] The same day and up to a 4-day lag of LTE4 was tested for, in separate models.
Experiment model: Daily albuterol use was modeled as a function of LTE4, group (montelukast and placebo), interval (baseline and treatment), and all interactions of these variables, using Poisson regression and employing GEE. Using the baseline model as a guide, 3-day moving averages of LTE4 (days 0-2 and 1-3 prior to current day) were used. Other covariates in the model included daily indicators for Friday, prednisone use, special exercise days during the treatment interval, and interval-level indictors of ICS and LABA use.
Effect modifier models: These models were fit for the subjects randomized to montelukast only. The model had LTE4, interval, the effect modifier of interest, and all interactions of these variables. Otherwise, the model was similar to the ‘Experiment model’ described above. The effect modifiers tested included gender, ICS and LABA use, mean LTE4, mean FENO, height, mean cotinine, and mean LTE4 to FENO ratio.
The interquartile range (IQR) for LTE4 was used to standardize slope estimates; this statistic was determined by first calculating the IQR for each subject, and then taking the median across subjects. For all models described above, a first order autoregressive working covariance structure was used to model repeated measures within subjects over time. SAS software, version 9.1 (PROC GENMOD) was used to fit the data to the models described above. […]

[1] = Group 1 meds: No Meds or ICS, 1-3 day moving average
[2] = Group 2 meds: ICS and LABA, 1-3 day moving average
[3] = LTE4:FENO Ratio 1st quartile estimate
[4] = LTE4:FENO Ratio 3rd quartile estimate
[5] = mean FENO 1st quartile estimate
[6] = mean FENO 3rd quartile estimate
[7] = mean LTE4 1st quartile estimate
[8] = mean LTE4 3rd quartile estimate
[9] = mean urine Cotinine 1st quartile estimate
[10] = mean urine Cotinine 3rd quartile estimate

CC(C)(O)c1ccccc1CC[C@@H](SCC1(CC(=O)O)CC1)c1cccc(/C=C/c2ccc3ccc(Cl)cc3n2)c1 [Montelukast, montelukast]
Change in Albuterol Usage per IQR of LTE4, Relative Diff. (Female (Group 2 gender)): −26.7% | Change in Albuterol Usage per IQR of LTE4, Treatment interval (Female (Group 2 gender)): −11.5% | Change in Albuterol Usage per IQR of LTE4, Relative Diff. [1]: −22.0% | Change in Albuterol Usage per IQR of LTE4, Treatment interval [1]: −10.5% | Change in Albuterol Usage per IQR of LTE4, Relative Diff. [2]: −6.6% | Change in Albuterol Usage per IQR of LTE4, Treatment interval [2]: −1.0% | Change in Albuterol Usage per IQR of LTE4, Relative Diff. (Height 1st quartile estimate): −16.4% | Change in Albuterol Usage per IQR of LTE4, Treatment interval (Height 1st quartile estimate): −2.4% | Change in Albuterol Usage per IQR of LTE4, Relative Diff. (Height 3rd quartile estimate): −16.4% | Change in Albuterol Usage per IQR of LTE4, Treatment interval (Height 3rd quartile estimate): −0.3% | Change in Albuterol Usage per IQR of LTE4, Relative Diff. [3]: 1.8% | Change in Albuterol Usage per IQR of LTE4, Treatment interval [3]: −0.8% | Change in Albuterol Usage per IQR of LTE4, Relative Diff. [4]: −17.6% | Change in Albuterol Usage per IQR of LTE4, Treatment interval [4]: −1.3% | Change in Albuterol Usage per IQR of LTE4, Relative Diff. (Male (Group 1 gender)): −7.9% | Change in Albuterol Usage per IQR of LTE4, Treatment interval (Male (Group 1 gender)): −0.5% | Change in Albuterol Usage per IQR of LTE4, Relative Diff. [5]: −10.4% | Change in Albuterol Usage per IQR of LTE4, Treatment interval [5]: −0.1% | Change in Albuterol Usage per IQR of LTE4, Relative Diff. [6]: −0.6% | Change in Albuterol Usage per IQR of LTE4, Treatment interval [6]: −6.4% | Change in Albuterol Usage per IQR of LTE4, Relative Diff. [7]: −13.4% | Change in Albuterol Usage per IQR of LTE4, Treatment interval [7]: −1.5% | Change in Albuterol Usage per IQR of LTE4, Relative Diff. [8]: −10.9% | Change in Albuterol Usage per IQR of LTE4, Treatment interval [8]: −4.8% | Change in Albuterol Usage per IQR of LTE4, Relative Diff. [9]: −8.2% | Change in Albuterol Usage per IQR of LTE4, Treatment interval [9]: −4.0% | Change in Albuterol Usage per IQR of LTE4, Relative Diff. [10]: −6.6% | Change in Albuterol Usage per IQR of LTE4, Treatment interval [10]: −3.6% | Change in Albuterol Usage Per IQR Increase in LTE4, Relative difference (treatment vs baseline interval) (Lag 0-2): −10.8% | Change in Albuterol Usage Per IQR Increase in LTE4, Treatment Interval (Lag 0-2 (Day 0-2 moving average of LTE4)): −3.0% | Change in Albuterol Usage Per IQR Increase in LTE4, Relative difference (treatment vs baseline interval) (Lag 1-3): −13.0% | Change in Albuterol Usage Per IQR Increase in LTE4, Treatment Interval (Lag 1-3 (Day 1-3 moving average of LTE4)): −3.2%
